Source: PubChem BioAssay AID2060511 (Molecular Pharmacology Branch, DTP, NCI, 2025)

Test system: 422866-222-R5-J1-PDC spheroids with HUVEC/MSC, viability
Assay: Anticancer human tumor 422866-222-R5-J1-PDC patient-derived pancreatic adenocarcinoma cell line growth inhibition [GQUAD]
Conditions: for IC50: curve of first compound; for viability, T/C: stronger effect = lower value
Outline: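 Tumor cells were grown as complex spheroids with HUVEC endothelial cells and mesenchymal stem cells as stroma. G-quadruplex stabilizers were combined with targeted agents over half-log dilutions from near the clinical Cmax, or from 10 microM.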

[1] = second compound 0.0316 µM, first compound 0.0316 µM
[2] = second compound 0.0316 µM, first compound 0.1 µM
[3] = second compound 0.0316 µM, first compound 0.316 µM
[4] = second compound 0.0316 µM, first compound 1 µM
[5] = second compound 0.0316 µM, first compound 3.16 µM
[6] = second compound 0.0316 µM, first compound 10 µM
[7] = second compound 0.1 µM, first compound 0.0316 µM
[8] = second compound 0.1 µM, first compound 0.1 µM
[9] = second compound 0.1 µM, first compound 0.316 µM
[10] = second compound 0.1 µM, first compound 1 µM
[11] = second compound 0.1 µM, first compound 3.16 µM
[12] = second compound 0.1 µM, first compound 10 µM
[13] = second compound 0.316 µM, first compound 0.0316 µM
[14] = second compound 0.316 µM, first compound 0.1 µM
[15] = second compound 0.316 µM, first compound 0.316 µM
[16] = second compound 0.316 µM, first compound 1 µM
[17] = second compound 0.316 µM, first compound 3.16 µM
[18] = second compound 0.316 µM, first compound 10 µM
[19] = second compound 1 µM, first compound 0.0316 µM
[20] = second compound 1 µM, first compound 0.1 µM
[21] = second compound 1 µM, first compound 0.316 µM
[22] = second compound 1 µM, first compound 1 µM
[23] = second compound 1 µM, first compound 3.16 µM
[24] = second compound 1 µM, first compound 10 µM
[25] = second compound 3.16 µM, first compound 0.0316 µM
[26] = second compound 3.16 µM, first compound 0.1 µM
[27] = second compound 3.16 µM, first compound 0.316 µM
[28] = second compound 3.16 µM, first compound 1 µM
[29] = second compound 3.16 µM, first compound 3.16 µM
[30] = second compound 3.16 µM, first compound 10 µM
[31] = second compound 10 µM, first compound 0.0316 µM
[32] = second compound 10 µM, first compound 0.1 µM
[33] = second compound 10 µM, first compound 0.316 µM
[34] = second compound 10 µM, first compound 1 µM
[35] = second compound 10 µM, first compound 3.16 µM
[36] = second compound 10 µM, first compound 10 µM
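Note: spheroids exposed to compounds for seven days before reading.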
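Throughout, for viability, T/C: percent viability relative to DMSO vehicle control taken as 100%.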

CC1COCCN1c1cc(-c2ccnn2C)c2ccnc(-c3ccn[nH]3)c2n1 (stereo unspecified) + Cc1cnc(CNC(=O)c2c(=O)c3ccc(N4CCCN(C)CC4)nc3n3c2sc2ccccc23)cn1
IC50 (second compound 0.0316 µM): > 10 µM
IC50 (second compound 0.1 µM): 0.0316 µM
IC50 (second compound 0.316 µM): > 10 µM
IC50 (second compound 1 µM): > 10 µM
IC50 (second compound 3.16 µM): > 10 µM
IC50 (second compound 10 µM): > 10 µM
viability, T/C [1]: 75.9%
viability, T/C [2]: 61.6%
viability, T/C [3]: 47.4%
viability, T/C [4]: 38%
viability, T/C [5]: 55%
viability, T/C [6]: 81.7%
viability, T/C [7]: 64.5%
viability, T/C [8]: 53.1%
viability, T/C [9]: 48.5%
viability, T/C [10]: 41.6%
viability, T/C [11]: 46.5%
viability, T/C [12]: 89.7%
viability, T/C [13]: 65.3%
viability, T/C [14]: 60.9%
viability, T/C [15]: 50.7%
viability, T/C [16]: 40.5%
viability, T/C [17]: 50.9%
viability, T/C [18]: 69.9%
viability, T/C [19]: 71.4%
viability, T/C [20]: 68.7%
viability, T/C [21]: 53.2%
viability, T/C [22]: 53.1%
viability, T/C [23]: 47.5%
viability, T/C [24]: 67.7%
viability, T/C [25]: 70.2%
viability, T/C [26]: 74.8%
viability, T/C [27]: 61%
viability, T/C [28]: 59%
viability, T/C [29]: 46.9%
viability, T/C [30]: 61.8%
viability, T/C [31]: 66.3%
viability, T/C [32]: 66.9%
viability, T/C [33]: 56%
viability, T/C [34]: 51.6%
viability, T/C [35]: 57.6%
viability, T/C [36]: 53.1%

O=C(NO)c1cnc(N2CCN(S(=O)(=O)c3ccc4ccccc4c3)CC2)nc1 + Cc1[nH]c2ccc(F)cc2c1-c1nc2c3cccnc3c3ncccc3c2[nH]1
IC50 (second compound 0.0316 µM): > 10 µM
IC50 (second compound 0.1 µM): > 10 µM
IC50 (second compound 0.316 µM): > 10 µM
IC50 (second compound 1 µM): > 10 µM
IC50 (second compound 3.16 µM): > 10 µM
IC50 (second compound 10 µM): > 10 µM
viability, T/C [1]: 78.6%
viability, T/C [2]: 69.2%
viability, T/C [3]: 64.7%
viability, T/C [4]: 68.1%
viability, T/C [5]: 71.6%
viability, T/C [6]: 75.4%
viability, T/C [7]: 81.1%
viability, T/C [8]: 68.3%
viability, T/C [9]: 56.4%
viability, T/C [10]: 61%
viability, T/C [11]: 74.2%
viability, T/C [12]: 72.3%
viability, T/C [13]: 77.5%
viability, T/C [14]: 68%
viability, T/C [15]: 71.4%
viability, T/C [16]: 61.7%
viability, T/C [17]: 63.2%
viability, T/C [18]: 78.1%
viability, T/C [19]: 64.4%
viability, T/C [20]: 61.6%
viability, T/C [21]: 62.6%
viability, T/C [22]: 61.2%
viability, T/C [23]: 75%
viability, T/C [24]: 70%
viability, T/C [25]: 56%
viability, T/C [26]: 56.6%
viability, T/C [27]: 51.6%
viability, T/C [28]: 63.3%
viability, T/C [29]: 67.8%
viability, T/C [30]: 66%
viability, T/C [31]: 60.1%
viability, T/C [32]: 47.8%
viability, T/C [33]: 59.5%
viability, T/C [34]: 57%
viability, T/C [35]: 51%
viability, T/C [36]: 64.4%

COc1cc(C2c3cc4c(cc3C(OC3OC5COC(C)OC5C(O)C3O)C3COC(=O)C23)OCO4)cc(OC)c1O (stereo unspecified) + Cc1cnc(CNC(=O)c2c(=O)c3ccc(N4CCCN(C)CC4)nc3n3c2sc2ccccc23)cn1
IC50 (second compound 0.0316 µM): 3.77 µM
IC50 (second compound 0.1 µM): > 10 µM
IC50 (second compound 0.316 µM): > 10 µM
IC50 (second compound 1 µM): > 10 µM
IC50 (second compound 3.16 µM): > 10 µM
IC50 (second compound 10 µM): > 10 µM
viability, T/C [1]: 98.4%
viability, T/C [2]: 78.3%
viability, T/C [3]: 83.7%
viability, T/C [4]: 59.4%
viability, T/C [5]: 53.5%
viability, T/C [6]: 39.1%
viability, T/C [7]: 92.8%
viability, T/C [8]: 79.2%
viability, T/C [9]: 77.6%
viability, T/C [10]: 66.8%
viability, T/C [11]: 59.2%
viability, T/C [12]: 49.7%
viability, T/C [13]: 81.6%
viability, T/C [14]: 94.8%
viability, T/C [15]: 84%
viability, T/C [16]: 80.9%
viability, T/C [17]: 71.8%
viability, T/C [18]: 58.9%
viability, T/C [19]: 81.9%
viability, T/C [20]: 92%
viability, T/C [21]: 91.4%
viability, T/C [22]: 91.4%
viability, T/C [23]: 81.1%
viability, T/C [24]: 56%
viability, T/C [25]: 84.6%
viability, T/C [26]: 87.3%
viability, T/C [27]: 82.4%
viability, T/C [28]: 85.5%
viability, T/C [29]: 81.6%
viability, T/C [30]: 60%
viability, T/C [31]: 86.2%
viability, T/C [32]: 80.4%
viability, T/C [33]: 85.5%
viability, T/C [34]: 93.2%
viability, T/C [35]: 85.1%
viability, T/C [36]: 52.1%
